Earlier results, collected in patent US10195257B2 (Qantu Therapeutics, Inc., priority 2013, dated 2019).

Legend:
T cells = settings: in vivo
Aβ = settings: without any adjuvant, administered intra-nasally
OVA-specific CTLs = settings: mice immunized with OVA plus adjuvant

## O=Cc1c(O)cccc1OCc1ccc(C(=O)O)cc1 [tucaresol, 4-(2-formyl-3-hydroxyphenoxymethylbenzoic acid)]
T cells
  type of immunity favored: favors a Th1-biased immunity with a Th1-type cytokine profile and concomitant CTL production

## Aβ40: main Aβ peptide that contains amino acid residues from 1 to 40
Aβ
  immune response and Aβ plaques: Th2 immune response and reduced levels of Aβ plaques

## QS-21
OVA-specific CTLs
  immune response type and CTL production: Th1 immune response with the concomitant production of OVA-specific CTLs
